Biological target: Multidrug resistance-associated protein 1 (Homo sapiens, UniProt P33527)
Assay: TP_TRANSPORTER: efflux in GLC4/sb30 cells
Type: functional, cell-based

Sequence of Multidrug resistance-associated protein 1 (P33527 whole entry): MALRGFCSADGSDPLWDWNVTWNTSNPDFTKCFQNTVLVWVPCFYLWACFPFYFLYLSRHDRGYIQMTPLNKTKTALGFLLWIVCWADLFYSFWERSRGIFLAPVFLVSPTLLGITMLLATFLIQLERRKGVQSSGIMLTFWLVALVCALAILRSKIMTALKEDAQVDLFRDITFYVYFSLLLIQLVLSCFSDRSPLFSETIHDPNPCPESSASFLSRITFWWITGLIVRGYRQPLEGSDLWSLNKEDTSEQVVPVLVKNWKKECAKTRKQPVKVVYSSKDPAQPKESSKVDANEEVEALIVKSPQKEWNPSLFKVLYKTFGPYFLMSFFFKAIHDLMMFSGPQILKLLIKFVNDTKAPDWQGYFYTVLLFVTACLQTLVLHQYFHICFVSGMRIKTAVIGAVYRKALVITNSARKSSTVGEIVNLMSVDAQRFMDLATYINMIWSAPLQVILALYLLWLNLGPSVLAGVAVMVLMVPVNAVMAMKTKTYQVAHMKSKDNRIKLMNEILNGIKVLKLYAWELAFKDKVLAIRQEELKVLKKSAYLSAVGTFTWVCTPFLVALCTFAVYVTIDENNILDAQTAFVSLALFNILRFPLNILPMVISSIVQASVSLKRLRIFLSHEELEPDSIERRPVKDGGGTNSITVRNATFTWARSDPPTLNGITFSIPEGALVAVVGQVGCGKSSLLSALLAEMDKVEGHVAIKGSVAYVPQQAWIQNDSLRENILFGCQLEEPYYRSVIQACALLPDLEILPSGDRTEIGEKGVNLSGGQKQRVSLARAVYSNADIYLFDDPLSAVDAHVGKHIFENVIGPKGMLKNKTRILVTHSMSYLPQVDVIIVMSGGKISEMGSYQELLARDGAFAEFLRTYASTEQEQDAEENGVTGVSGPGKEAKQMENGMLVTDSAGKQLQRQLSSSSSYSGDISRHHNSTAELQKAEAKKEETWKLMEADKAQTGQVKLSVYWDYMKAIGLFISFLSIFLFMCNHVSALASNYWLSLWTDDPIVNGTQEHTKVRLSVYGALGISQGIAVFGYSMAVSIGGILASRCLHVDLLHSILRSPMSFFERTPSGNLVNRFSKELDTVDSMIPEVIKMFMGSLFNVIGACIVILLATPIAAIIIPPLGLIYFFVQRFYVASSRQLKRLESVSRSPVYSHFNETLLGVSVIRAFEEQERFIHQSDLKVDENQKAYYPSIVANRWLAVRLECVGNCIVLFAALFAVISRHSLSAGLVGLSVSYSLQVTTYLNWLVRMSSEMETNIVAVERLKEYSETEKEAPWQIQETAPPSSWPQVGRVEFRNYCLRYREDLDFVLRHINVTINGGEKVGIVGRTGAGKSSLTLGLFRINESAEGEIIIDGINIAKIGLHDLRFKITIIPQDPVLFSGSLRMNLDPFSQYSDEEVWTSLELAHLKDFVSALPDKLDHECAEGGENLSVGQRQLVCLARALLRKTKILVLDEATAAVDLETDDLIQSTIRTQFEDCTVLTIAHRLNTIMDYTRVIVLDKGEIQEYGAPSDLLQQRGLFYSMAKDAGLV

O=C(O)c1ccc(C(=O)O)c(-c2c3cc(Cl)c(=O)cc-3oc3cc(O)c(Cl)cc23)c1.O=C(O)c1cccc(C(=O)O)c1-c1c2cc(Cl)c(=O)cc-2oc2cc(O)c(Cl)cc12
Activity: substrate [+]
